Laboratory results from ChEMBL document CHEMBL1201862, “PubChem BioAssay data set” (2004).
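Briefly, cells in 96-well plates were exposed to five compound concentrations for 48 h, and endpoints were estimated by linear interpolation. Here, GI50 denotes the concentration required for 50% inhibition of growth.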 Activity calls are given as the source filed them. Cut-off read from the data, not from the text of the source: active = GI50 up to about 1.1 µM and inactive = higher.

Assays:
Assay in all cases: NCI-60 cell line screen, 48 h
SK-MEL-2 = tested on: SK-MEL-2
SK-MEL-5 = tested on: SK-MEL-5
Malme-3M = tested on: Malme-3M
786-0 = tested on: 786-0
NCI-H226 = tested on: NCI-H226
SF-539 = tested on: SF-539
UACC-257 = tested on: UACC-257
LOX IMVI = tested on: LOX IMVI
M19-MEL = tested on: M19-MEL
HCC 2998 = tested on: HCC 2998
A549 = tested on: A549
OVCAR-3 = tested on: OVCAR-3
HL-60 = tested on: HL-60
NCI-H23 = tested on: NCI-H23
SR = tested on: SR

Measured: GI50

Cc1cc(N(CCC#N)CCC#N)ccc1/C=C/C(=O)Nc1cccc(Cl)c1
inactive: SK-MEL-2 > 100 µM | SK-MEL-5 > 100 µM | Malme-3M > 100 µM | 786-0 > 100 µM | NCI-H226 > 100 µM | SF-539 > 100 µM | UACC-257 > 100 µM | LOX IMVI 52.2 µM | M19-MEL > 100 µM | HCC 2998 > 100 µM | A549 > 100 µM | OVCAR-3 > 100 µM | HL-60 51.3 µM | NCI-H23 > 100 µM

Cc1nc(NC(=S)NC(=O)c2ccc(Cl)c(Cl)c2)sc1C(=O)/C=C/c1ccccc1[N+](=O)[O-]
inactive: SK-MEL-2 18.4 µM | Malme-3M 18.5 µM | 786-0 17.8 µM | SF-539 19 µM | UACC-257 30.1 µM | LOX IMVI 16.6 µM | M19-MEL 26.8 µM | HCC 2998 33.3 µM | A549 25.3 µM | OVCAR-3 22.1 µM | HL-60 19.1 µM | NCI-H23 20.9 µM | SR 24.5 µM

CCOC(=O)C(=O)Nc1c(F)cc(F)cc1Br
inactive: SK-MEL-2 > 100 µM | SK-MEL-5 > 100 µM | Malme-3M > 100 µM | 786-0 > 100 µM | NCI-H226 > 100 µM | SF-539 > 100 µM | UACC-257 > 100 µM | LOX IMVI > 100 µM | M19-MEL > 100 µM | HCC 2998 > 100 µM | A549 > 100 µM | OVCAR-3 > 100 µM | HL-60 > 100 µM | NCI-H23 > 100 µM | SR > 100 µM

CCc1cccc(C(C)CC)c1NC(=O)C(=O)C(CC(=O)Nc1ccc(Cl)c(Cl)c1)C(=O)OC (stereo not given)
inactive: SK-MEL-2 > 100 µM | Malme-3M > 100 µM | 786-0 80.9 µM | NCI-H226 > 100 µM | SF-539 > 100 µM | UACC-257 > 100 µM | M19-MEL 36.8 µM | HCC 2998 93.3 µM | A549 63.1 µM | OVCAR-3 > 100 µM | HL-60 > 100 µM | NCI-H23 > 100 µM | SR 66.1 µM

O=C(O)C#CCO
inactive: SK-MEL-2 > 100 µM | SK-MEL-5 > 100 µM | Malme-3M > 100 µM | 786-0 > 100 µM | SF-539 > 100 µM | UACC-257 > 100 µM | LOX IMVI > 100 µM | M19-MEL > 100 µM | A549 > 100 µM | OVCAR-3 > 100 µM | HL-60 > 100 µM | NCI-H23 > 100 µM

O=C1C(Br)=CC2(C=C1Br)CCNC1=C2C(=O)c2ccccc2C1=O
inactive: SK-MEL-2 14.9 µM | SK-MEL-5 11.6 µM | Malme-3M 18.1 µM | 786-0 11.9 µM | UACC-257 14.1 µM | LOX IMVI 4.24 µM | M19-MEL 4.66 µM | A549 22.8 µM | OVCAR-3 29.6 µM | HL-60 3.34 µM | NCI-H23 7.6 µM | SR 2.95 µM

COC(=O)C(c1ccc(OC)cc1)N1C(=O)[C@@H](NC(=O)c2ccccc2)[C@H]1[C@@H](C)O (stereo not given in full)
inactive: SK-MEL-2 > 100 µM | SK-MEL-5 > 100 µM | Malme-3M > 100 µM | 786-0 > 100 µM | NCI-H226 > 100 µM | SF-539 > 100 µM | UACC-257 > 100 µM | LOX IMVI > 100 µM | M19-MEL > 100 µM | HCC 2998 > 100 µM | A549 > 100 µM | OVCAR-3 > 100 µM | HL-60 > 100 µM | NCI-H23 > 100 µM | SR > 100 µM

COC(OC)[C@@H](C)[C@H](O)[C@](C)(O)C1OC(C)(C)OC(C(C)C=C(C)C)C1C (stereo not given in full)
inactive: SK-MEL-2 > 100 µM | SK-MEL-5 64.9 µM | Malme-3M > 100 µM | 786-0 > 100 µM | NCI-H226 > 100 µM | SF-539 > 100 µM | UACC-257 93.1 µM | LOX IMVI > 100 µM | M19-MEL > 100 µM | A549 > 100 µM | OVCAR-3 > 100 µM | HL-60 29.9 µM | NCI-H23 > 100 µM | SR 73.3 µM

CC1(C)CC[C@]2(C(=O)O)CCC3(C)C(=CCC4[C@@]5(C)CC[C@H](OC6OCC(O)C(O)C6OC6OC(CO)C(O)C(O)C6O)C(C)(C)C5CC[C@]43C)C2C1 (stereo not given in full)
inactive: SK-MEL-5 3.98 µM | Malme-3M 1.87 µM | 786-0 2.04 µM | NCI-H226 1.55 µM | SF-539 2.22 µM | UACC-257 2.94 µM | LOX IMVI 1.95 µM | M19-MEL 1.83 µM | HCC 2998 1.71 µM | A549 1.86 µM | OVCAR-3 2.12 µM | NCI-H23 2.11 µM | SR 2.29 µM

CSc1ccc2c(cc1=O)[C@@H](NC(=O)c1ccc(F)cc1)CCc1cc(O)c(O)c(O)c1-2
inactive: SK-MEL-2 > 100 µM | SK-MEL-5 > 100 µM | Malme-3M > 100 µM | 786-0 > 100 µM | NCI-H226 > 100 µM | SF-539 > 100 µM | UACC-257 > 100 µM | LOX IMVI > 100 µM | M19-MEL > 100 µM | HCC 2998 > 100 µM | A549 > 100 µM | OVCAR-3 > 100 µM | HL-60 > 100 µM | NCI-H23 > 100 µM
